Data from ChEMBL document CHEMBL4251632, “Synthesis and antidepressant-like activity of novel aralkyl piperazine derivatives targeting SSRI/5-HT1A/5-HT7” (Eur J Med Chem, 2018).

Experiments:
[1] = target: T1, 5-hydroxytryptamine receptor 7 (Homo sapiens, UniProt P34969); test: Displacement of [3H]LSD from recombinant human 5-HT7 receptor expressed in CHO cell membranes at 10 uM after 120 mins by TopCount scintillation counting method relative to control
[2] = target: T2, 5-hydroxytryptamine receptor 1A (Homo sapiens) (UniProt P08908); test: Displacement of [3H]8-OH-DPAT from recombinant human 5-HT1A receptor expressed in HEK293 cell membranes at 10 uM after 60 mins by TopCount scintillation counting method relative to control
T2 sequence (whole entry): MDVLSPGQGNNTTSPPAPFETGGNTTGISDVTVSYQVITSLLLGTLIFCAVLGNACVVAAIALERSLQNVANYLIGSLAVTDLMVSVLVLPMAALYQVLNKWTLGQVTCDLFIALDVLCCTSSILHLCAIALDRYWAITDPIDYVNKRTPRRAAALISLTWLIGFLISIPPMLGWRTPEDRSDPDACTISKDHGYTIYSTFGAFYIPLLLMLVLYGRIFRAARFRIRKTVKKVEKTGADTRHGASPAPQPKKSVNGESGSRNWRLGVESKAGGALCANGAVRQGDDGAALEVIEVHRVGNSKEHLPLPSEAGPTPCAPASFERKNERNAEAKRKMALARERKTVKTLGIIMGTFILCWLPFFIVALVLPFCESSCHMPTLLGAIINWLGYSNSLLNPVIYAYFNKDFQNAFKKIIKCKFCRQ

[3] = target: Sodium-dependent serotonin transporter (Rattus norvegicus) (UniProt P31652); test: Inhibition of [3H]serotonin reuptake in rat brain synaptosomes SERT at 10 uM after 15 mins by TopCount scintillation counting method relative to control; format: subcellular
[4] = target: Sodium-dependent serotonin transporter (Homo sapiens, UniProt P31645)
Description: Inhibition of serotonin reuptake in SERT (unknown origin)

[5] = target: Sodium-dependent serotonin transporter (Rattus norvegicus, UniProt P31652); test: Inhibition of [3H]serotonin reuptake in rat brain synaptosomes SERT after 15 mins by TopCount scintillation counting method; format: subcellular
in vitro = details: rat, liver microsomes
Description: Half life in rat liver microsomes at 1 uM in presence of NADPH by LC-MS/MS analysis

[6] = Clearance in rat liver microsomes at 1 uM in presence of NADPH by LC-MS/MS analysis; format: ADME, microsome; details: read-out: CLH
[7] = target: T3, 5-hydroxytryptamine receptor 1A (Homo sapiens, UniProt P08908); test: Displacement of [3H]8-OH-DPAT from recombinant human 5-HT1A receptor expressed in HEK293 cell membranes after 60 mins by TopCount scintillation counting method
T3 sequence (P08908 whole entry): T2 sequence (whole entry)

[8] = target: T1, 5-hydroxytryptamine receptor 7; test: Displacement of [3H]LSD from recombinant human 5-HT7 receptor expressed in CHO cell membranes after 120 mins by TopCount scintillation counting method
Mus musculus [9] = test: Antidepressant-like activity in mouse assessed as reduction in immobility time at 40 mg/kg/day, po administered once daily for 7 days measured for 5 mins at 1 hr post last dose by tail suspension test relative to control; format: functional; design: scale not given: the % may be the effect or the level left
Mus musculus [10] = test: Antidepressant-like activity in po dosed mouse assessed as reduction in immobility time administered once daily for 7 days measured for last 4 mins of 6 mins test at 1 hr post last dose by forced swim test; format: functional, organism-based
Mus musculus [11] = test: Antidepressant-like activity in mouse assessed as reduction in immobility time at 40 mg/kg/day, po once daily for 7 days measured for last 4 mins of 6 mins test at 1 hr post last dose by forced swim test relative to control; format: functional; design: scale not given: the % may be the effect or the level left
Mus musculus [12] = test: Antidepressant-like activity in mouse assessed as reduction in immobility time at 10 mg/kg/day, po once daily for 7 days measured for last 4 mins of 6 mins test at 1 hr post last dose by forced swim test relative to control; format: functional; design: scale not given: the % may be the effect or the level left
Mus musculus [13] = test: Antidepressant-like activity in mouse assessed as reduction in immobility time at 20 mg/kg/day, po once daily for 7 days measured for last 4 mins of 6 mins test at 1 hr post last dose by forced swim test relative to control; format: functional; design: scale not given: the % may be the effect or the level left

T1 sequence (P34969 whole entry): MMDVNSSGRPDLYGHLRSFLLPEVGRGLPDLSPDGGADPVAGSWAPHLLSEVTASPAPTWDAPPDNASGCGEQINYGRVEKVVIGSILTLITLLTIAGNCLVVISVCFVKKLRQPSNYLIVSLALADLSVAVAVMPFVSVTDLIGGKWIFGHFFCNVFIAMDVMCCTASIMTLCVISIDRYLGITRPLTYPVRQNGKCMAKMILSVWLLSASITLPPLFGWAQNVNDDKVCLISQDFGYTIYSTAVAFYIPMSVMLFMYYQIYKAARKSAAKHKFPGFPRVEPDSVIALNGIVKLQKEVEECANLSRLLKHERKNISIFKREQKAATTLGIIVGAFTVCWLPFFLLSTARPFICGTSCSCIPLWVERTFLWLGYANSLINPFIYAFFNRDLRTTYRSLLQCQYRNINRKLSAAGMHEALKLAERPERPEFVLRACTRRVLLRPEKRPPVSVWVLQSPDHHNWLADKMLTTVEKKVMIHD
Sodium-dependent serotonin transporter (Rattus norvegicus, UniProt P31652), sequence (P31652 whole entry): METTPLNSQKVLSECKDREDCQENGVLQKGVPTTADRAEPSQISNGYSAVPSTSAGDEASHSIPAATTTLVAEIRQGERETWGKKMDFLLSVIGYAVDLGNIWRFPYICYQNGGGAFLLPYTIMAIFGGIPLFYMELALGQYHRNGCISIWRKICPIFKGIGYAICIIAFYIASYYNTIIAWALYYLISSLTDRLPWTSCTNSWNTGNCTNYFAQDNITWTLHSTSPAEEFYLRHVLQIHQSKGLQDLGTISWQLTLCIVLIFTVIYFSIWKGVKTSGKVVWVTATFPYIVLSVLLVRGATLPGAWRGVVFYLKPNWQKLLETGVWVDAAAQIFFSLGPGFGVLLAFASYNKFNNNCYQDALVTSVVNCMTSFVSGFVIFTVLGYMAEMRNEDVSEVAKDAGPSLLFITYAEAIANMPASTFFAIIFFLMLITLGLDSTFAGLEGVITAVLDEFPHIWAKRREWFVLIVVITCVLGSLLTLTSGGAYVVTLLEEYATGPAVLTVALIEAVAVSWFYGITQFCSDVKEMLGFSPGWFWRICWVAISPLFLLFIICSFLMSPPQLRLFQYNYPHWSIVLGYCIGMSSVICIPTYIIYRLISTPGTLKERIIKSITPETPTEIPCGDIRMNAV
Sodium-dependent serotonin transporter (Rattus norvegicus), sequence (P31652 whole entry): as above
Sodium-dependent serotonin transporter (Homo sapiens, UniProt P31645), sequence (P31645 whole entry): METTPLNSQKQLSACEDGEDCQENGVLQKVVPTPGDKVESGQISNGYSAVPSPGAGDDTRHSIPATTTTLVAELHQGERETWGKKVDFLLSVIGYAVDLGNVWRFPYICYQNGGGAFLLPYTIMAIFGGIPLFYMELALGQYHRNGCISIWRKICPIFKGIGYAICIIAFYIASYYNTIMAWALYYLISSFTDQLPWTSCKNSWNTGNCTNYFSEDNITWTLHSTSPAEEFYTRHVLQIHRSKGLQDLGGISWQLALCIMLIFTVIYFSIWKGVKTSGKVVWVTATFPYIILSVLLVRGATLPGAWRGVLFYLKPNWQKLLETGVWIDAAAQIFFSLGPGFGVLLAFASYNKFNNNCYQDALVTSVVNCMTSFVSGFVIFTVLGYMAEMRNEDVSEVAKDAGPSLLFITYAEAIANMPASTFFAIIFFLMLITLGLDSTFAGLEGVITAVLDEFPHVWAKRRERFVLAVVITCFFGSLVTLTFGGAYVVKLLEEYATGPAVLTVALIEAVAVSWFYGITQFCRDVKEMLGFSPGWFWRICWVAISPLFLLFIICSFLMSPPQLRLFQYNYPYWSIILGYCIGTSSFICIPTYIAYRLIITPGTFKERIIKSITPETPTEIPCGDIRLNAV

SMILES	inhibition [1] [%]	inhibition [2] [%]	inhibition [3] [%]	IC50 [5] [nM]	half-life at 1 µM (in vitro) [min]	microsomal CLint at 1 µM [6] [µL/min/mg]	Ki [7] [nM]	Ki [8] [nM]	further results
N#Cc1ccc(-c2ccccc2N2CCN(CCc3c[nH]c4ccc(F)cc34)CC2)cc1	97.3	99.5	84.2						
COc1ccccc1N1CCN(CCCN2CCOc3ccccc32)CC1									Ki [4]: 195 nM
Cc1ccc(-c2ccccc2N2CCN(CCc3c[nH]c4ccc(F)cc34)CC2)cc1	99.5	101	> 90	1700					
Fc1ccc(-c2ccccc2N2CCN(CCc3c[nH]c4ccc(F)cc34)CC2)cc1	94.9	101	> 90	590	9.6	144			
Fc1cccc(-c2ccccc2N2CCN(CCc3c[nH]c4ccc(F)cc34)CC2)c1	0.79	> 90	> 90	150	9	155	5.6	0.79	
Fc1cccc(-c2cc(F)ccc2N2CCN(CCCCc3c[nH]c4ccc(F)cc34)CC2)c1	97.5	96	> 90	120					
CSc1ccccc1N1CCN(CCc2coc3ccccc23)CC1	86.8	99.7	112						
Fc1cccc(-c2ccccc2N2CCN(CCCc3c[nH]c4ccc(F)cc34)CC2)c1	> 90	> 90	> 90	42	27.7	50	8.1	1.1	
COc1ccc(-c2ccccc2N2CCN(CCc3c[nH]c4ccc(F)cc34)CC2)cc1	94.7	99.2	82.8						
c1ccc(-c2ccccc2N2CCN(CCc3coc4ccccc34)CC2)cc1	102	99.5	> 90	210					
Fc1cc2c(c(OCCNCCCc3c[nH]c4ccc(F)cc34)c1)OCCC2									Ki [4]: 0.47 nM
COc1ccc(C(CN(C)C)C2(O)CCCCC2)cc1 (stereo not given) [VENLAFAXINE]									Activity (Mus musculus [9]): 35%
c1ccc(-c2cccc(N3CCN(CCc4coc5ccccc45)CC3)c2)cc1	71.9	97.5	99.4						
Cc1cccc(-c2ccccc2N2CCN(CCc3c[nH]c4ccc(F)cc34)CC2)c1	97.3	98.1	> 90	160					
Fc1ccc2[nH]cc(CCN3CCN(c4ccccc4-c4ccccc4F)CC3)c2c1	> 90	> 90	> 90	96	4	343	25	2.3	
Fc1cccc(-c2cc(F)ccc2N2CCN(CCCc3c[nH]c4ccc(F)cc34)CC2)c1	> 90	> 90	> 90	31	56.8	24.4	62	12	Activity (Mus musculus [10]): Dose-dependent effect; Activity (Mus musculus [11]): 37%; Activity (Mus musculus [12]): 18%; Activity (Mus musculus [13]): 21%
c1ccc(-c2ccccc2N2CCN(CCc3cc4ccccc4o3)CC2)cc1	96.4	97.7	> 90	2900					
N#Cc1ccc2[nH]cc(CCN3CCN(c4ccccc4-c4ccccc4)CC3)c2c1	93.7	97.6	> 90	190					
Fc1ccc2[nH]cc(CCCN3CCN(c4ccccc4-c4ccccc4)CC3)c2c1	> 90	> 90	> 90	7.6			13	1.1	
Fc1cccc(-c2ccc(F)cc2N2CCN(CCCc3c[nH]c4ccc(F)cc34)CC2)c1	> 90	> 90	> 90	9.4	28.8	48.1	15	2.6	
Cc1ccc(Sc2ccccc2N2CCNCC2)c(C)c1 [VORTIOXETINE]									Activity (Mus musculus [11]): 48 - 52%
COc1ccccc1N1CCN(CCc2coc3ccccc23)CC1	85.6	98.5	110						
Fc1ccc2[nH]cc(CCN3CCN(c4ccccc4-c4ccccc4)CC3)c2c1	> 90	> 90	> 90	110	6.1	226	0.53	0.26	
Fc1cccc(-c2c(F)cccc2N2CCN(CCCc3c[nH]c4ccc(F)cc34)CC2)c1	> 90	> 90	> 90	10	26.9	51.5	18	0.55	
